Data taken from patent US20250332159A1, “REACTIVE OXYGEN SPECIES MODULATION THROUGH BINDING OF LIGANDS AT THE NQ-BINDING SITE OF THE RESPIRATORY COMPLEX III” (University of Health Sciences & Pharmacy in St. Louis, priority 2024, published 2025).

Experiments:
Assay type in all cases: cell-based, human
[1] = test system: MCF7 cells; experiment: MTS cytotoxicity assay; conditions: MCF7 cell line, 48 hours
Description: MCF7 cells were harvested and seeded at a cell density of 5,000 cells/well into a 96-well white plate and left overnight to adhere. […] Then, cells were washed and assayed for cytotoxicity using CellTiter 96® AQueous One Solution Cell Proliferation Assay kit (MTS) (Promega, USA), which is a colorimetric assay containing colorless tetrazolium compound that is bio-reduced by NADPH or NADH produced by dehydrogenase enzymes in metabolically active cells into a colored formazan product that can be measured at wavelength 490 nm using the Synergy Biotek plate reader. Sequential treatment was performed by incubating the overnight attached MCF7 cells with 25 μM of MH-200102 for 24 hours. Then, the cells were washed once and incubated with different concentrations of MH-101015 for another 24 hours. Then, the cells were assayed for cytotoxicity, as mentioned above.

[2] = test system: MCF7 cells; experiment: Total cellular ROS measurement (CellRox Green); conditions: 25 μM, 6-8 hours
Description: (§1) The MCF7 breast cancer cell line (ATCC, HTB-22) was purchased from American Type Culture Collection (ATCC, Manassas, VA) and propagated in Eagle's minimum essential medium (EMEM, ATCC) supplemented with 10% FBS (Thermo Scientific), 1% L-glutamine and 1% penicillin/streptomycin (ATCC) in a humidified incubator at 37° C. and 5% CO2. Cells were harvested and seeded into a 96-well black plate at a cell density of 25,000 cells/well and left overnight to adhere. Afterward, cells were treated with 25 μM of the 14 purchased ligands from MolPort (Riga, Latvia), positive control (i.e., doxorubicin), and negative control (i.e., DMSO) and left in the incubator for 6-8 hours. For the Qo and Qi inhibition experiments, 25 μM of myxothiazol or antimycin A (Sigma-Aldrich), respectively were also incubated. Negative controls for the inhibition experiments were composed of DMSO and either 25 μM of myxothiazol or antimycin A. Afterward, cells were washed and stained for 30 minutes at 37° C. and 5% CO2 in the dark using the CellRox Green (Invitrogen, USA) or the MitoSOX Red Assay Kit (Invitrogen, USA). Afterward, cells were washed, and total cellular ROS or mitochondrial superoxide anion levels were measured using the Synergy Biotek UV/Vis/fluorescence microplate reader with excitation/emission wavelengths of 490/525 nm or 396/610 nm, respectively. Nuclei were labeled using NucBlue Live ReadyProbes Reagent (Hoechst 33342). All experiments were performed in at least triplicate and repeated for at least three independent trials.

[3] = test system: MCF7 cells; experiment: Qo and Qi inhibition experiments: mitochondrial superoxide anion with myxothiazol or antimycin A; conditions: for mitochondrial superoxide anion level, ligand with myxothiazol (MYX): 25 μM ligand + 25 μM MYX (Qo site inhibitor); for mitochondrial superoxide anion level, ligand with antimycin (ANT): 25 μM ligand + 25 μM ANT (Qi site inhibitor)
Description: as §1

SMILES | IC50 ([1]; Homo sapiens, single treatment, read-out: cytotoxic activity IC50) | total ROS level compared to negative control (DMSO) [2] | mitochondrial superoxide anion level, ligand with myxothiazol (MYX) [3] | mitochondrial superoxide anion level, ligand with antimycin (ANT) [3] | cytotoxic activity ([1]; 0-100 μM)
O=C(CSc1ccccc1)NCCCn1ccnc1 [MH-200102] | 14.6 µM | twofold | MYX blocks the ROS up-modulating activity |  | 
COCc1cnc2n1CCN(C(=O)c1cscn1)[C@H]2C [MH-131013] |  | total ROS down-regulating activity | MYX blocks any ROS down-modulating activity | ANT blocks any ROS down-regulating activity | 
O=C(O)c1cccc2ncccc12 [MH-01015] |  | total ROS down-regulating activity | MYX blocks any ROS down-modulating activity | ANT blocks any ROS down-regulating activity | 
Cc1cc(I)ccc1NC(=O)c1ccc(Br)c(N)c1 [MH-04504] |  | modest total ROS upregulating activity | MYX blocks the ROS up-modulating activity |  | modest cytotoxic activity
